According to patent publication US8012975B2, “Antitumoral analogs of ET-743” (Pharma Mar, S.A., priority 2000, dated 2011):
Like-named read-outs stand apart in the source and are kept apart here.

How the values were obtained:
P-388 [1] = tested on: P-388
P-388 [2] = experiment: Cytotoxic activity IC50, P-388; conditions: Mus musculus, P388, read-out: CYTOTOXIC ACTIVITIY IC50 (μM) P-388
A-549 [3] = experiment: Cytotoxic activity IC50, A-549; conditions: Homo sapiens, A549, read-out: CYTOTOXIC ACTIVITIY IC50 (μM) A-549, A-549
DU-145 [4] = tested on: DU-145
MEL-28 [5] = experiment: Cytotoxic activity IC50, MEL-28; conditions: Homo sapiens, SK-MEL-28, read-out: CYTOTOXIC ACTIVITIY IC50 (μM) MEL-28, MEL-28
MEL-28 [6] = tested on: MEL-28
A-549 [7] = tested on: A-549
DU-145 [8] = experiment: Cytotoxic activity IC50, DU-145; conditions: Homo sapiens, DU-145, read-out: CYTOTOXIC ACTIVITIY IC50 (μM) DU-145, DU-145
in vitro = conditions: African green monkey

Compound	IC50 (P-388 [1])	IC50 (DU-145 [4])	IC50 (HT-29)	IC50 (MEL-28 [6])	IC50 (A-549 [7])	other results
CCCCCC(=O)NC[C@H]1c2c(c(OC(C)=O)c(C)c3c2OCO3)CC2[C@H]3c4c(cc(C)c(OC)c4O)C[C@@H]([C@H](C#N)N21)N3C (some centres unmarked) [drawing 126]	0.1 nM	–	–	–	–	–
CCCC(=O)NC[C@H]1c2c(c(OC(C)=O)c(C)c3c2OCO3)CC2[C@H]3c4c(cc(C)c(OC)c4O)C[C@@H]([C@H](O)N21)N3C (some centres unmarked) [drawing 114]	–	0.1 nM	0.1 nM	–	–	IC50 (P-388 [2]): 0.0008 µM; IC50 (A-549 [3]): 0.0008 µM; IC50 (MEL-28 [5]): 0.0008 µM
COc1c(C)cc2c(c1O)[C@@H]1C3Cc4c(OC(C)=O)c(C)c5c(c4[C@H](CNC(=O)/C=C/c4ccccc4)N3[C@@H](O)[C@H](C2)N1C)OCO5 (some centres unmarked) [drawing 113]	0.1 nM	0.1 nM	0.1 nM	0.1 nM	0.1 nM	–
CCCC(=O)OC[C@H]1c2c(c(OC(C)=O)c(C)c3c2OCO3)CC2[C@H]3c4c(cc(C)c(OC)c4OCOC)C[C@@H]([C@H](C#N)N21)N3C (some centres unmarked) [drawing 148]	–	–	–	–	–	IC50 (P-388 [2]): 0.1 µM; IC50 (MEL-28 [6]; human): 100 nM; IC50 (DU-145 [4]; human): 100 nM; IC50 (HT-29; human): 100 nM; IC50 (A-549 [7]; human): 100 nM
C=CCOC(=O)Oc1c(C)c2c(c3c1CC1[C@H]4c5c(cc(C)c(OC)c5O)C[C@@H]([C@H](C#N)N1[C@H]3CNC(=O)CCc1ccccc1)N4C)OCO2 (some centres unmarked)	0.1 nM	0.1 nM	0.1 nM	0.1 nM	0.1 nM	–
COc1c(C)cc2c(c1O)[C@@H]1C3Cc4c(OC(C)=O)c(C)c5c(c4[C@H](CNC(=O)CCc4ccccc4)N3[C@@H](O)[C@H](C2)N1C)OCO5 (some centres unmarked) [drawing 123]	0.1 nM	0.1 nM	0.1 nM	0.1 nM	0.1 nM	–
C=CCOC(=O)Oc1c(C)c2c(c3c1CC1[C@H]4c5c(cc(C)c(OC)c5O)C[C@@H]([C@H](O)N1[C@H]3CNC(=O)CCc1ccccc1)N4C)OCO2 (some centres unmarked)	0.1 nM	0.1 nM	0.1 nM	0.1 nM	0.1 nM	–
COc1c(C)cc2c(c1O)[C@@H]1C3Cc4c(OC(C)=O)c(C)c5c(c4[C@H](CNC(=O)[C@H](C)NC(=O)C(F)(F)F)N3[C@@H](C#N)[C@H](C2)N1C)OCO5 (some centres unmarked)	0.1 nM	0.1 nM	0.1 nM	0.1 nM	0.1 nM	–
CCCC(=O)OC[C@H]1c2c(c(OC(C)=O)c(C)c3c2OCO3)CC2[C@H]3c4c(cc(C)c(OC)c4O)C[C@@H]([C@H](O)N21)N3C (some centres unmarked) [drawing 156]	0.1 nM	0.1 nM	0.1 nM	0.1 nM	0.1 nM	–
COc1c(C)cc2c(c1O)[C@@H]1C3Cc4c(OC(C)=O)c(C)c5c(c4[C@H](CNC(=O)[C@@H](C)NC(=O)CC(C)C)N3[C@@H](C#N)[C@H](C2)N1C)OCO5 (some centres unmarked)	0.1 nM	0.1 nM	0.1 nM	0.1 nM	0.1 nM	–
COc1c(C)cc2c(c1O)[C@@H]1C3Cc4c(OC(C)=O)c(C)c5c(c4[C@H](CNC(=O)/C=C/c4cccc(C(F)(F)F)c4)N3[C@@H](C#N)[C@H](C2)N1C)OCO5 (some centres unmarked)	0.1 nM	0.1 nM	0.1 nM	0.1 nM	0.1 nM	–
C/C=C(\OC(C)=O)C1=C(C2=COCO2)[C@H](CNC(=O)/C=C/c2ccccc2)N2C(C1)[C@H]1c3c(cc(C)c(OC)c3O)C[C@@H]([C@@H]2C#N)N1C (some centres unmarked)	0.1 nM	0.1 nM	0.1 nM	0.1 nM	0.1 nM	–
COc1c(C)cc2c(c1O)[C@@H]1C3Cc4c(OC(C)=O)c(C)c5c(c4[C@H](COC(=O)/C=C/c4ccccc4)N3[C@@H](O)[C@H](C2)N1C)OCO5 (some centres unmarked) [drawing 159]	0.1 nM	–	–	–	–	–
COc1c(C)cc2c(c1O)[C@@H]1C3Cc4c(OC(C)=O)c(C)c5c(c4[C@H](CNC(=O)[C@H](C)NC(=O)CCc4ccccc4)N3[C@@H](O)[C@H](C2)N1C)OCO5 (some centres unmarked) [drawing 135]	0.1 nM	0.1 nM	0.1 nM	0.1 nM	0.1 nM	–
C/C=C/C(=O)NC[C@H]1c2c(c(OC(C)=O)c(C)c3c2OCO3)CC2[C@H]3c4c(cc(C)c(OC)c4O)C[C@@H]([C@H](C#N)N21)N3C (some centres unmarked)	0.1 nM	–	0.1 nM	0.1 nM	–	IC50 (A-549 [3]): 0.0008 µM; IC50 (DU-145 [8]): 0.0008 µM
COc1c(C)cc2c(c1O)[C@@H]1C3Cc4c(OC(C)=O)c(C)c5c(c4[C@H](CNC(=O)CCc4ccccc4)N3[C@@H](C#N)[C@H](C2)N1C)OCO5 (some centres unmarked)	0.1 nM	0.1 nM	0.1 nM	0.1 nM	0.1 nM	–
C/C=C(\OC(C)=O)C1=C(C2=COCO2)[C@H](CNC(=O)CCC)N2C(C1)[C@H]1c3c(cc(C)c(OC)c3O)C[C@@H]([C@@H]2C#N)N1C (some centres unmarked)	0.1 nM	0.1 nM	0.1 nM	0.1 nM	0.1 nM	–

Compound	IC50 (P-388 [1])	IC50 (DU-145 [4])	IC50 (HT-29)	IC50 (MEL-28 [6])	IC50 (A-549 [7])	other results
COC1=C(C)C(=O)C2=C(C1=O)[C@H](CNC(=O)C(C)N)N1C(C2)[C@H]2c3c(cc(C)c(OC)c3O)C[C@@H]([C@@H]1C#N)N2C (some centres unmarked)	–	–	–	–	–	IC50 (in vitro): 23 nM
COc1c(C)cc2c(c1O)[C@@H]1C3Cc4c(O)c(C)c5c(c4[C@H](CN4C(=O)c6ccccc6C4=O)N3[C@@H](C#N)[C@H](C2)N1C)OCO5 (some centres unmarked)	–	–	–	–	–	IC50 (in vitro): 1 nM
COc1c(C)cc2c(c1O)[C@@H]1C3Cc4c(OC(C)=O)c(C)c5c(c4[C@H](COC(=O)CCc4ccccc4)N3[C@@H](C#N)[C@H](C2)N1C)OCO5 (some centres unmarked)	0.1 nM	0.1 nM	0.1 nM	0.1 nM	0.1 nM	–
COc1c(C)cc2c(c1O)[C@@H]1C3Cc4c(OC(C)=O)c(C)c5c(c4[C@H](CNC(=O)[C@H](C)NC(=O)Cc4ccccc4)N3[C@@H](C#N)[C@H](C2)N1C)OCO5 (some centres unmarked)	0.1 nM	0.1 nM	0.1 nM	0.1 nM	0.1 nM	–
C/C=C/C(=O)NC[C@H]1c2c(c(OC(C)=O)c(C)c3c2OCO3)CC2[C@H]3c4c(cc(C)c(OC)c4O)C[C@@H]([C@H](O)N21)N3C (some centres unmarked)	0.1 nM	–	0.1 nM	0.1 nM	–	IC50 (A-549 [3]): 0.0008 µM; IC50 (DU-145 [8]): 0.0008 µM
CCC(=O)NC[C@H]1c2c(c(OC(C)=O)c(C)c3c2OCO3)CC2[C@H]3c4c(cc(C)c(OC)c4O)C[C@@H]([C@H](C#N)N21)N3C (some centres unmarked)	0.1 nM	0.1 nM	0.1 nM	0.1 nM	0.1 nM	–
COC1=C(C)C(=O)C2=C(C1=O)[C@H](CNC(=O)C(C)N=CSNc1ccccc1)N1C(C2)[C@H]2c3c(cc(C)c(OC)c3O)C[C@@H]([C@@H]1C#N)N2C (some centres unmarked)	–	–	–	–	–	IC50 (in vitro): 18 nM
COc1c(C)cc2c(c1O)[C@@H]1C3Cc4c(OC(C)=O)c(C)c5c(c4[C@H](CNC(=O)Cc4ccccc4)N3[C@@H](C#N)[C@H](C2)N1C)OCO5 (some centres unmarked)	0.1 nM	0.1 nM	0.1 nM	0.1 nM	0.1 nM	–
COc1c(C)cc2c(c1O)[C@@H]1C3Cc4c(OC(C)=O)c(C)c5c(c4[C@H](CNC(=O)[C@H](C)NC(=O)C(F)(F)F)N3[C@@H](O)[C@H](C2)N1C)OCO5 (some centres unmarked) [drawing 110]	0.1 nM	0.1 nM	0.1 nM	0.1 nM	0.1 nM	–
COc1c(C)cc2c(c1O)[C@@H]1C3Cc4c(OC(C)=O)c(C)c5c(c4[C@H](COC(=O)CCc4ccccc4)N3[C@@H](O)[C@H](C2)N1C)OCO5 (some centres unmarked) [drawing 158]	0.1 nM	0.1 nM	0.1 nM	0.1 nM	0.1 nM	–
C=CCOC(=O)Oc1c(C)c2c(c3c1CC1[C@H]4c5c(cc(C)c(OC)c5O)C[C@@H]([C@H](O)N1[C@H]3CNC(=O)/C=C/c1ccccc1)N4C)OCO2 (some centres unmarked)	0.1 nM	0.1 nM	0.1 nM	0.1 nM	0.1 nM	–
CCC(=O)N[C@@H](C)C(=O)NC[C@H]1c2c(c(OC(C)=O)c(C)c3c2OCO3)CC2[C@H]3c4c(cc(C)c(OC)c4O)C[C@@H]([C@H](O)N21)N3C (some centres unmarked) [drawing 138]	0.1 nM	0.1 nM	0.1 nM	0.1 nM	0.1 nM	–
COCOc1c(OC)c(C)cc2c1[C@@H]1C3CC4=C(C(=O)C(O)=C(C)C4=O)[C@H](CNC(C)=O)N3[C@@H](C#N)[C@H](C2)N1C (some centres unmarked)	–	–	–	–	–	IC50 (in vitro): > 18100 nM
C=CCOC(=O)Oc1c(C)c2c(c3c1CC1[C@H]4c5c(cc(C)c(OC)c5O)C[C@@H]([C@H](C#N)N1[C@H]3CNC(=O)/C=C/c1ccccc1)N4C)OCO2 (some centres unmarked)	0.1 nM	0.1 nM	0.1 nM	0.1 nM	0.1 nM	–
CCCC(=O)OC[C@H]1c2c(c(OC(C)=O)c(C)c3c2OCO3)CC2[C@H]3c4c(cc(C)c(OC)c4OCOC)C[C@@H]([C@H](C#N)N21)N3C (some centres unmarked) [drawing 152]	0.1 nM	–	–	–	–	IC50 (MEL-28 [6]; human): 0.8 nM; IC50 (DU-145 [4]; human): 0.8 nM; IC50 (HT-29; human): 0.8 nM; IC50 (A-549 [7]; human): 0.8 nM
COc1c(C)cc2c(c1O)[C@@H]1C3Cc4c(OC(C)=O)c(C)c5c(c4[C@H](COC(=O)/C=C/c4cccc(C(F)(F)F)c4)N3[C@@H](O)[C@H](C2)N1C)OCO5 (some centres unmarked) [drawing 157]	0.1 nM	0.1 nM	0.1 nM	0.1 nM	0.1 nM	–
CCC(=O)NC[C@H]1c2c(c(OC(C)=O)c(C)c3c2OCO3)CC2[C@H]3c4c(cc(C)c(OC)c4O)C[C@@H]([C@H](O)N21)N3C (some centres unmarked) [drawing 125]	0.1 nM	0.1 nM	0.1 nM	0.1 nM	0.1 nM	–
